Values quoted from earlier work, collected in PMC12326358, “Effect of Quantitative Structural Properties and Drug Formulation in Four Cannabinoids (Cannabidiol, Cannabigerol, Cannabichromene, and Cannabinol) on Their Lymphatic Transport after Enteral Administration in Rats” (Molecular Pharmaceutics, 2025).

Tests used:
[1] = cited from earlier work; for log P: ref literature
[2] = cited from earlier work
[3] = Beagle dogs, formulation with drug dispersed in small lipid droplets; cited from earlier work

Row | Compound | solubility in long-chain triglycerides [1] | log P [1] | partitioning into lymph [2] | FRL ([2]; drug with prominent first-pass metabolism in the liver, ref literature) | bioavailability increase [3]
1 | COc1nc(C(Cl)(Cl)Cl)c(Cl)c(OC)c1Cl [penclomedine] | > 50 mg/g | > 5 | very limited partitioning into lymph |  | 
2 | CCCCCCCCCCC(=O)O[C@H]1CC[C@H]2[C@@H]3CCC4=CC(=O)CC[C@]4(C)[C@H]3CC[C@]12C [testosterone undecanoate] |  | 6.7 |  | 98.5% | 
3 | CC(C)(C)c1cc(C(C)(C)C)c(NC(=O)c2c[nH]c3ccccc3c2=O)cc1O [ivacaftor, reference compound] |  |  |  |  | 7 fold
